Reference: patent US20160151412A1, “COMBINATION OF XENON WITH AN NMDA RECEPTOR ANTAGONIST FOR FIGHTING A NEURODEGENERATIVE DISEASE” (L'AIR LIQUIDE, SOCIETE ANONYME POUR L'ETUDE ET …, priority 2013, published 2016)

Test system: rat cortex cultures (cortical neurons)
Assay: Neuronal survival (MAP-2 positive cell counts) in rat cortex cultures with PDC-induced chronic cortical degeneration under controlled gas atmosphere
Type: cell-based
Parameters: key to Neuronal survival: +++=reference level; ++: a favorable response, synonymous with a decrease in neuronal cell death in the presence of the treatments of interest; +: a favorable response, synonymous with a decrease in neuronal cell death in the presence of the treatments of interest; an unfavorable response is represented by a “−” sign, synonymous with an increase in neuronal death
Procedure: Cultures are prepared from rat embryo cortex taken from Wistar rates, on day 15.5 of gestation. The method for obtaining cortex cultures comprises the preparation of a homogeneous cell suspension by mechanical, i.e., non-enzymatic, dissociation of embryonic tissue using Leibovitz's L15 medium (Sigma Aldrich). Aliquots of this suspension are added to Nunc 48-well plates coated beforehand with a thin layer of polyethylenimine (1 mg/ml, borate buffer, pH 8.3) to allow neuronal cells to adhere (see Toulorge et al., Faseb J, 2011). The seeding density is between about 20,000 and 30,000 cells/cm^2. The cortex cultures are maintained in Neurobasal culture medium containing an […] B27 cocktail, N2 supplement, glutamine (2 mM) and a penicillin/streptomycin cocktail (see Nafia et al., J Neurochem, 2008). The medium and the supplement are available from Life Technologies. Six hours after placing in culture, 0.5 μM of the antimitotic cytarabine (Sigma Aldrich) is added to limit the proliferation of astrocytes. Until the moment when the effects of the gases of interest are evaluated, the cultures are placed in a conventional enclosure thermostated at 37° C., wherein CO2 is maintained at 5% by volume and the atmosphere is saturated with water. The culture medium is not changed during the culture period. The degenerative process is triggered by applying a glutamate reuptake system blocker, PDC (Zuiderwijk et al., Europ J Pharmacol, 1994). The NMDA receptor blocker, memantine, is added to the cultures before the application of PDC. These two products (PDC and memantine) are from RD Systems. Once the pharmacological treatments are carried out, the multi-well plates containing the cells in culture and the plate used for humidification of the internal compartment of the chamber are placed on a metal base that receives the Plexiglas incubation chamber. The two parts (base and Plexiglas chamber) are screwed together in a joined manner. A gas mixture of interest comprising (% by volume): 20% O2, 5% CO2 and 75% of the gas tested is then injected into the incubation chamber, with inlet and outlet valves open, while controlling the outlet flow by means of a flowmeter. The gases tested are nitrogen and xenon. The reference outlet flow, set for air at 10 liters/minute, is corrected as a function of the density of the mixture used. When the CO2 measurement at the outlet reaches 5%, the injection of the gas mixture is stopped and the chamber is completely sealed by closing the inlet and outlet valves. The exposure chamber is then placed in a 37° C. enclosure throughout the experimental protocol. After breaking the seal by opening the inlet and outlet valves and unscrewing the chamber from its base, the cultures are fixed with 4% formaldehyde in PBS for 12 minutes and then incubated at 4° C. with a monoclonal anti-MAP-2 antibody (dilution 1:200; clone AP-20; Sigma-Aldrich) for 3 days. This antibody is detected with an anti-mouse secondary antibody coupled with cyanine-3 (Sigma Aldrich; dilution 1:1000 in PBS). Image capturing is carried out with the 10× objective using a Nikon TE-300 inverted microscope equipped with an ORCA-ER cooled digital camera and HCl image capturing software (Hamamatsu). […] The cultures are then collected for fixing and analysis. Neuronal survival is quantified in the various experimental conditions tested by counting the number of cell bodies immunopositive for the pan-neuronal marker MAP-2.

Q: Which Neuronal survival (PDC 30 μM, 75% N2, days 12-16) does the source give for O=C(O)[C@H]1CN[C@H](C(=O)O)C1 (relative stereo) [PDC, L-trans-pyrrolidine-2,4-dicarboxylic acid] here?
A: −

Q: And the “loss of cortical neuronal cells” value (PDC 30 μM, 75% nitrogen)?
A: about 85%

Q: What about the survival rate (PDC 30 μM, 75% nitrogen, % of cultures not treated with PDC under 75% nitrogen) of the same compound?
A: 15.9%

Q: Which results are given for [Xe] [Xe, xenon]?
A: Neuronal survival (PDC 30 μM, 75% Xe, days 12-16): ++; effect on neuronal survival versus nitrogen-alone condition (ANOVA, Student-Newman-Keuls, p<0.05) (PDC 30 μM, 75% xenon without memantine, n=6): significantly superior to that of the nitrogen-alone condition; Neuronal survival (no PDC, 20% O2 + 5% CO2 + 75% Xe, days 12-16, day-16 cortex cultures): +++

Q: For CC12CC3CC(C)(C1)CC(N)(C3)C2 [memantine], which “effect on neuronal survival” value (PDC 30 μM + memantine 0.1 μM alone, 75% nitrogen) is on record?
A: no significant effect

Q: And the Neuronal survival (PDC 30 μM + memantine 0.1 μM, 75% N2, days 12-16)?
A: −

Q: And the survival rate (PDC 30 μM + memantine 1 μM by itself, 75% nitrogen)?
A: 54.6%

Q: What about the Neuronal survival (PDC 30 μM + memantine 1 μM, 75% N2, days 12-16) of the same compound?
A: ++

Q: And the neuronal cells saved (PDC 30 μM + memantine 10 μM itself, 75% nitrogen)?
A: more than 90%

Q: And the Neuronal survival (PDC 30 μM + memantine 10 μM, 75% N2, days 12-16)?
A: +++
